Assay results reported in PubChem BioAssay (NCI).
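Cultured in 96-well plates, cells were exposed to test compound for 48 hours across five concentrations. TGI: total growth inhibition.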

Legend:
Test in all cases: growth of human tumour cells (NCI), 48 h
KM20L2 colon = tested on: KM20L2 colon
HT29 colon = tested on: HT29 colon
OVCAR-8 ovarian = tested on: OVCAR-8 ovarian
XF 498 CNS = tested on: XF 498 CNS
SK-OV-3 ovarian = tested on: SK-OV-3 ovarian
LOX IMVI melanoma = tested on: LOX IMVI melanoma
786-0 renal = tested on: 786-0 renal
SW-620 colon = tested on: SW-620 colon
RXF 393 renal = tested on: RXF 393 renal
UO-31 renal = tested on: UO-31 renal
CAKI-1 renal = tested on: CAKI-1 renal
DMS 273 small cell lung = tested on: DMS 273 small cell lung
ACHN renal = tested on: ACHN renal
SK-MEL-2 melanoma = tested on: SK-MEL-2 melanoma
SK-MEL-28 melanoma = tested on: SK-MEL-28 melanoma
DLD-1 colon = tested on: DLD-1 colon
RPMI-8226 leukemia = tested on: RPMI-8226 leukemia
NCI-H226 lung = tested on: NCI-H226 lung
MALME-3M melanoma = tested on: MALME-3M melanoma
UACC-257 melanoma = tested on: UACC-257 melanoma
HCC-2998 colon = tested on: HCC-2998 colon
M19-MEL melanoma = tested on: M19-MEL melanoma
LXFL 529 NSCLC = tested on: LXFL 529 NSCLC
CCRF-CEM leukemia = tested on: CCRF-CEM leukemia
NCI-H522 lung = tested on: NCI-H522 lung
UACC-62 melanoma = tested on: UACC-62 melanoma
NCI-H460 lung = tested on: NCI-H460 lung
OVCAR-4 ovarian = tested on: OVCAR-4 ovarian
K-562 leukemia = tested on: K-562 leukemia
DMS 114 small cell lung = tested on: DMS 114 small cell lung
MOLT-4 leukemia = tested on: MOLT-4 leukemia
TK-10 renal = tested on: TK-10 renal
SNB-19 CNS = tested on: SNB-19 CNS
HCT-116 colon = tested on: HCT-116 colon
OVCAR-5 ovarian = tested on: OVCAR-5 ovarian
SN12C renal = tested on: SN12C renal
HL-60(TB) leukemia = tested on: HL-60(TB) leukemia
IGROV1 ovarian = tested on: IGROV1 ovarian
U251 CNS = tested on: U251 CNS
OVCAR-3 ovarian = tested on: OVCAR-3 ovarian
NCI-H23 lung = tested on: NCI-H23 lung
EKVX NSCLC = tested on: EKVX NSCLC
SNB-78 CNS = tested on: SNB-78 CNS
KM12 colon = tested on: KM12 colon
HCT-15 colon = tested on: HCT-15 colon
SNB-75 CNS = tested on: SNB-75 CNS
A549 NSCLC = tested on: A549 NSCLC
COLO 205 colon = tested on: COLO 205 colon
SK-MEL-5 melanoma = tested on: SK-MEL-5 melanoma
HOP-18 NSCLC = tested on: HOP-18 NSCLC
SF-295 CNS = tested on: SF-295 CNS
SF-268 CNS = tested on: SF-268 CNS
HOP-62 NSCLC = tested on: HOP-62 NSCLC
M14 melanoma = tested on: M14 melanoma
SR leukemia = tested on: SR leukemia
SF-539 CNS = tested on: SF-539 CNS
A498 renal = tested on: A498 renal
HOP-92 NSCLC = tested on: HOP-92 NSCLC

Measured: TGI

COc1cc(C2C(Cl)C(=O)N2NC(=O)Cc2ccccc2)cc(Br)c1O (stereo unspecified)
not listed: SF-539 CNS | A498 renal | HOP-92 NSCLC
> 100 µM: all other assays above

CC(=O)Nc1ccc(/C=C/C(=O)c2sc(-c3cccnc3)nc2C)cc1
not listed: XF 498 CNS | LXFL 529 NSCLC | OVCAR-4 ovarian | SNB-19 CNS | HCT-116 colon | M14 melanoma | SR leukemia
> 100 µM: all other assays above
